Test results reported in patent EP3298025B1, “NEW AMINO ACID SEQUENCES WITH MI[…] DERIVED FROM NAJA ATRA CARDIOTOXIN 1 (CTX-1)” (Università degli Studi di Parma, priority 2015, dated 2016).
No end group written: not given here.

Legend:
[1] = at 40 µg / ml; cited from earlier work
[2] = system: Mutton RBCs; assay: haemolysis test; type: cell-based; conditions: maximum concentration 100 µg/ml; 1 hour at room temperature
Procedure: Mutton RBCs, sampled immediately before the test, were washed with isotonic buffer to obtain clear supernatant. The washed RBCs were incubated with different peptide concentrations for 1 hour at room temperature. After this the solution was centrifuged and the haemolysis in the supernatant quantified with a spectrophotometer at 450 nm. The positive control was RBC lysed with 0,1% of Tryton. The sample determined the maximal optical density. The haemolysis percentage was calculated as sample optical density at 450 nm and positive control optical density ratio. MHC10 was the minimal peptide concentration able to lyse 10% of RBC.

[3] = system: epithelial MDBK cells (Madin Darby Bovine Kidney); assay: cytotoxicity against eukaryotic cells, Trypan Blue; type: cell-based; conditions: overnight incubation
Procedure: Peptides cytotoxicity against epithelial MDBK cells (Madin Darby Bovine Kidney) was determined using cell cultures of about 5x10^5 cells/ml with and without peptides, with overnight incubation at 37°C with CO2. The negative control was in medium without peptide; positive control was in medium with 0.2% of Triton x100, to completely lyse cells. Cells vitality was assessed adding every well with 20 µl of Trypan Blue, incubating other 5 minutes at 37°C. MCC10 was the minimal peptide concentration with 10% of cytotoxicity.

Sequence	hemolysis [1]	haemolytic effect [2] [%]	Cytotoxicity: cell number percentage reduction in comparison with control ([3]; peptide 12.5 µg/ml) [%]	Cytotoxicity: cell number percentage reduction in comparison with control ([3]; peptide 100 µg/ml) [%]
KFFKFFKFFK [synthetic peptide consisting of cationic lysine residues and hydrophobic phenylalanine residues]	severely hemolytic	–	–	–
KLIPILSKTIPAIKNLFYKI [NCP-2]	–	< 10	3	5
KLIWILSKTIPAIKNLFYKI [NCP-3]	–	< 10	3	7
